Assay results from patent publication US20080214606A1, “Methods for the Identification and Use of Compounds Suitable for the Treatment of Drug Resistant Cancer Cells” (The Government of the United States of America as …, priority 2004, published 2008).
Entries after “also recorded” stand apart in the source; their conditions may differ. Like-named read-outs stand apart in the source and are kept apart here.

Tests used:
ABCB6 = molecular target: T1, ABCB6 (Homo sapiens, UniProt Q9NP58); assay: Correlation of ABCB6 expression with drug sensitivity across the NCI-60; type: cell-based; conditions: Pearson correlation of ABCB6 expression with sensitivity of the 60 cell lines; 1429 compounds; inverse, p < 0.0001
T1 construct: profiled in 60 diverse cancer cell lines (the NCI-60) using real-time RT-PCR; endogenous in cells; host or cells: NCI-60 human cancer cell lines
Description: (§1) Expression levels are measured by real-time quantitative RT-PCR using the LightCycler RNA Amplification SYBR Green kit and a LightCycler machine (Roche Biochemicals, Indianapolis, Ind.). Specific oligonucleotide probes are designed for each of the ABC transporters using DNAStar Primer Select (DNASTAR Inc.), and they may be synthesized at Lofstrand Laboratories (Gaithersburg, Md.). When possible, the amplicons are designed to encompass exon-intron boundaries to avoid amplification of genomic DNA. Since the Syber Green assay detects accumulation of double stranded DNA, primers are selected (from a battery consisting of about 200 primers) that amplified a single product of the correct size. […]
(§2) During PCR amplification, fluorescence emission is measured and recorded in real time by the LightCycler. Crossing point values are calculated, using the LightCycler software package, by the Fit Points analysis method, with baseline fluorescence set at 1. The SyberGreen assay measures accumulation of double-stranded products, and the appearance of primer dimers limits quantitation at high cycle numbers. […] The raw results are expressed as number of cycles to reach the crossing point. If the desired product is not detected, the corresponding value is adjusted to crossing points indicating no expression. To assess the contribution of experimental artifacts, selected cell lines are assessed in replicate. […]

ABCG2 = molecular target: T2, ABCG2 (Homo sapiens, UniProt Q9UNQ0); assay: Correlation of ABCG2 expression with drug sensitivity across the NCI-60; type: cell-based; conditions: Pearson correlation of ABCG2 expression with sensitivity of the 60 cell lines; 1429 compounds; inverse, p < 0.0001
T2 construct: endogenous in cells; host or cells: NCI-60 human cancer cell lines
Description: as §1, §2

ABCC5 = molecular target: T3, ABCC5 (Homo sapiens, UniProt O15440); assay: Correlation of ABCC5 expression with drug sensitivity across the NCI-60; type: cell-based; conditions: Pearson correlation of ABCC5 expression with sensitivity of the 60 cell lines; 1429 compounds; inverse, p < 0.0001
T3 construct: profiled in 60 diverse cancer cell lines (the NCI-60) using real-time RT-PCR; endogenous in cells; host or cells: NCI-60 human cancer cell lines
Description: (§3) Expression levels are measured by real-time quantitative RT-PCR using the LightCycler RNA Amplification SYBR Green kit and a LightCycler machine (Roche Biochemicals, Indianapolis, Ind.). […] When possible, the amplicons are designed to encompass exon-intron boundaries to avoid amplification of genomic DNA. Since the Syber Green assay detects accumulation of double stranded DNA, primers are selected (from a battery consisting of about 200 primers) that amplified a single product of the correct size.
(§4) RT-PCR is carried out on 150 ng total RNA, in the presence of 250 nM specific primers. Following reverse transcription (20 min at 50° C.), the PCR reaction consists of 45 cycles of denaturation (15 sec at 95° C.), annealing (30 sec at 58° C.), and elongation (30 sec at 72° C.). No-template (water) reaction mixtures are prepared as negative controls.
(§5) During PCR amplification, fluorescence emission is measured and recorded in real time by the LightCycler. Crossing point values are calculated, using the LightCycler software package, by the Fit Points analysis method, with baseline fluorescence set at 1. The SyberGreen assay measures accumulation of double-stranded products, and the appearance of primer dimers limits quantitation at high cycle numbers. The specificity of amplified products is verified by melting-curve analysis and agarose gel electrophoresis (not shown). The raw results are expressed as number of cycles to reach the crossing point. If the desired product is not detected, the corresponding value is adjusted to crossing points indicating no expression. To assess the contribution of experimental artifacts, selected cell lines are assessed in replicate.
(§6) The two are combined to form a joint dataset that includes 1429 compounds.
(§7) In the Benjamini-Hochberg procedure the p-values are computed in the standard way by permutation, assuming that all distributions are exchangeable: the number of values in the permuted data with correlations over a threshold, divided by the number of compounds and by the number of permutations. In this analysis, the False Discovery Rate (q-value) at which each compound would be declared was calculated using the step-up procedure for positively correlated test statistics (again true because all correlations being compared are computed against the same ABC gene): in this procedure the first q-value for the largest correlation is the Bonferroni-corrected p-value for that gene; then further q-values are calculated as qj=max(pj*1429/j, qj-1). This procedure limits the expected proportion of false positives in the list 1, . . . , j to at most qj.

ABCB1 = ABCB1 (Homo sapiens, UniProt P08183); assay: Correlation of ABCB1 expression with drug sensitivity across the NCI-60
Procedure, shortened: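 SYBR Green real-time RT-PCR on 150 ng total RNA with 250 nM primers: RT 20 min at 50 °C, then 45 cycles; expression taken as crossing-point cycle number. Correlated with drug sensitivity of 1429 compounds across the cell panel; permutation p-values with step-down and step-up (FDR q-value) multiple-testing correction.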

[1] = tested on: MDR1-overexpressing KB-V1 cells; assay: Efflux assay (accumulation of fluorescent NSC 634791, flow cytometry); type: cell-based, human
Description: The dashed lines indicate the same experiment performed in the presence of 2 μM of the ABCB1 inhibitor, PSC 833 (for KB-3-1, the solid and dashed lines overlap). Values are means ±SE. for representative experiments performed in triplicate. […] The effect of PSC 833 on IC50 values in KB-V1 cells is expressed as a dose modifying factor, DMF=[IC50/IC50+(IC50)PSC833)], where (IC50)PSC833 is the value obtained in the presence of the inhibitor. […] Cells are incubated with 1.74 μM NSC 634791 for 10 min at 37° C. in the presence (peak on the right) or absence (peak on the left) of 2 μM PSC 833.
Trypsinized cells are washed twice in phosphate-buffered saline (PBS). 5×10^5 cells are pre-incubated for 5 min at 37° C. in Iscove's Modified Dulbecco's Medium (Quality Biologicals, Gaithersburg, Md.) with 0.5% dimethyl sulphoxide (DMSO), with or without 2 μM PSC 833. […] Green fluorescence intensity is measured using a FacsCalibur flow cytometer equipped with a 488-nm argon laser (Becton Dickinson Biosciences, San Jose, Calif., USA). […]
To test whether our approach using the NCI-60 does, in fact, identify new substrates, an MTT assay is used to test all top-scoring compounds that were available from DTP for follow-up experiments. […] The intrinsic fluorescence of one of the compounds, NSC 634791, allows for the measurement of the effect of MDR1 activity on its export from cells.

[2] = tested on: ABCC2-transfected MDCKII cells; assay: MTT assay, ABCC2-transfected vs sham-transfected MDCKII cells; type: cell-based, dog
Description: Panel A is a scatter plot showing the correlation (r) of ABCC2 expression with sensitivity of the 60 cells to NSC 641281 (r=−0.46; 99.99% two-tailed bootstrap confidence interval −0.7987 to −0.0440).
Cell survival is measured by the MTT (3-(4,5-Dimethylthiazol-2-yl)-2,5-diphenyltetrazolium) Assay. Cells are seeded in 100 μl medium at a density of 5000 cells/well in 96 well plates, and serially diluted drug (with or without 2 μM PSC 833) is added the following day in 100 μl medium to give the indicated final concentration. Cells are then incubated for 72 hrs at 37° C. in 5% CO2, and the MTT assay is performed according to the manufacturer's instructions (Molecular Probes, Eugene, Oreg.).
The ABCC (MRP) subfamily is comprised of nine members that transport structurally diverse lipophilic anions and function as drug efflux pumps (Kruh and Belinsky, 2003, Oncogene 22:7537-52). ABCC2-MRP2 is a canalicular efflux pump with a role in the hepatobiliary excretion of bilirubin glucuronide as well as numerous pharmaceuticals. […] One of these compounds, NSC 641281 (shown in FIG. 4, Panel C), was available from DTP for further testing. […]

MDR1 = MDR1 (Homo sapiens, UniProt P08183); conditions: cited from earlier work; for Interaction with MDR1: tested in various laboratories
ABCA9 = molecular target: T4, ABCA9 (Homo sapiens, UniProt Q8IUA7); assay: Correlation of ABCA9 expression with drug sensitivity across the NCI-60; type: cell-based; conditions: Pearson correlation of ABCA9 expression with sensitivity of the 60 cell lines; 1429 compounds; inverse, p < 0.0001
T4 construct: profiled in 60 diverse cancer cell lines (the NCI-60) using real-time RT-PCR; endogenous in cells; host or cells: NCI-60 human cancer cell lines
Description: as §1, §2

ABCA1 = molecular target: T5, ABCA1 (Homo sapiens, UniProt O95477); assay: Correlation of ABCA1 expression with drug sensitivity across the NCI-60; type: cell-based; conditions: Pearson correlation of ABCA1 expression with sensitivity of the 60 cell lines; 1429 compounds; inverse, p < 0.0001
T5 construct: profiled in 60 diverse cancer cell lines (the NCI-60) using real-time RT-PCR; endogenous in cells; host or cells: NCI-60 human cancer cell lines
Description: as §3, §4, §5, §6, §7

ABCA4 = molecular target: T6, ABCA4 (Homo sapiens, UniProt P78363); assay: Correlation of ABCA4 expression with drug sensitivity across the NCI-60; type: cell-based; conditions: Pearson correlation of ABCA4 expression with sensitivity of the 60 cell lines; 1429 compounds; inverse, p < 0.0001
T6 construct: profiled in 60 diverse cancer cell lines (the NCI-60) using real-time RT-PCR; endogenous in cells; host or cells: NCI-60 human cancer cell lines
Description: (§8) Expression levels are measured by real-time quantitative RT-PCR using the LightCycler RNA Amplification SYBR Green kit and a LightCycler machine (Roche Biochemicals, Indianapolis, Ind.). Specific oligonucleotide probes are designed for each of the ABC transporters using DNAStar Primer Select (DNASTAR Inc.), and they may be synthesized at Lofstrand Laboratories (Gaithersburg, Md.). When possible, the amplicons are designed to encompass exon-intron boundaries to avoid amplification of genomic DNA. Since the Syber Green assay detects accumulation of double stranded DNA, primers are selected (from a battery consisting of about 200 primers) that amplified a single product of the correct size.
as §4, §5, §6
(§9) To control the overall false type 1 error rate, both a step-down procedure (Westfall and Young, 1993, Resampling-Based Multiple Testing: Examples and Methods for p-value Adjustment (New York: Wiley)) and a step-up procedure (Reiner et al., 2003, Bioinformatics 19:368-375) were employed to adjust for multiple testing of all 47 genes simultaneously. […] In this analysis, the False Discovery Rate (q-value) at which each compound would be declared was calculated using the step-up procedure for positively correlated test statistics (again true because all correlations being compared are computed against the same ABC gene): in this procedure the first q-value for the largest correlation is the Bonferroni-corrected p-value for that gene; then further q-values are calculated as qj=max(pj*1429/j, qj-1). […]

ABCC3 = molecular target: T7, ABCC3 (Homo sapiens, UniProt O15438); assay: Correlation of ABCC3 expression with drug sensitivity across the NCI-60; type: cell-based; conditions: Pearson correlation of ABCC3 expression with sensitivity of the 60 cell lines; 1429 compounds; inverse, p < 0.0001
T7 construct: profiled in 60 diverse cancer cell lines (the NCI-60) using real-time RT-PCR; endogenous in cells; host or cells: NCI-60 human cancer cell lines
Description: as §3, §4, §5, §6
To determine quantitatively how well the 47 genes cluster the cell lines by their tissues of origin, a statistical method is employed wherein the kappa statistic is used to indicate how well the observed clusters correspond to the nine tissue-of-origin classifications. […] To control the overall false type 1 error rate, both a step-down procedure (Westfall and Young, 1993, Resampling-Based Multiple Testing: Examples and Methods for p-value Adjustment (New York: Wiley)) and a step-up procedure (Reiner et al., 2003, Bioinformatics 19:368-375) were employed to adjust for multiple testing of all 47 genes simultaneously. In the Benjamini-Hochberg procedure the p-values are computed in the standard way by permutation, assuming that all distributions are exchangeable: the number of values in the permuted data with correlations over a threshold, divided by the number of compounds and by the number of permutations. In this analysis, the False Discovery Rate (q-value) at which each compound would be declared was calculated using the step-up procedure for positively correlated test statistics (again true because all correlations being compared are computed against the same ABC gene): in this procedure the first q-value for the largest correlation is the Bonferroni-corrected p-value for that gene; then further q-values are calculated as qj=max(pj*1429/j, qj-1). This procedure limits the expected proportion of false positives in the list 1, . . . , j to at most qj.

ABCA12 = molecular target: T8, ABCA12 (Homo sapiens, UniProt Q86UK0); assay: Correlation of ABCA12 expression with drug sensitivity across the NCI-60; type: cell-based; conditions: Pearson correlation of ABCA12 expression with sensitivity of the 60 cell lines; 1429 compounds; inverse, p < 0.0001
T8 construct: profiled in 60 diverse cancer cell lines (the NCI-60) using real-time RT-PCR; endogenous in cells; host or cells: NCI-60 human cancer cell lines
Description: as §8, §4, §5, §6, §9

T5 sequence (O95477 whole entry): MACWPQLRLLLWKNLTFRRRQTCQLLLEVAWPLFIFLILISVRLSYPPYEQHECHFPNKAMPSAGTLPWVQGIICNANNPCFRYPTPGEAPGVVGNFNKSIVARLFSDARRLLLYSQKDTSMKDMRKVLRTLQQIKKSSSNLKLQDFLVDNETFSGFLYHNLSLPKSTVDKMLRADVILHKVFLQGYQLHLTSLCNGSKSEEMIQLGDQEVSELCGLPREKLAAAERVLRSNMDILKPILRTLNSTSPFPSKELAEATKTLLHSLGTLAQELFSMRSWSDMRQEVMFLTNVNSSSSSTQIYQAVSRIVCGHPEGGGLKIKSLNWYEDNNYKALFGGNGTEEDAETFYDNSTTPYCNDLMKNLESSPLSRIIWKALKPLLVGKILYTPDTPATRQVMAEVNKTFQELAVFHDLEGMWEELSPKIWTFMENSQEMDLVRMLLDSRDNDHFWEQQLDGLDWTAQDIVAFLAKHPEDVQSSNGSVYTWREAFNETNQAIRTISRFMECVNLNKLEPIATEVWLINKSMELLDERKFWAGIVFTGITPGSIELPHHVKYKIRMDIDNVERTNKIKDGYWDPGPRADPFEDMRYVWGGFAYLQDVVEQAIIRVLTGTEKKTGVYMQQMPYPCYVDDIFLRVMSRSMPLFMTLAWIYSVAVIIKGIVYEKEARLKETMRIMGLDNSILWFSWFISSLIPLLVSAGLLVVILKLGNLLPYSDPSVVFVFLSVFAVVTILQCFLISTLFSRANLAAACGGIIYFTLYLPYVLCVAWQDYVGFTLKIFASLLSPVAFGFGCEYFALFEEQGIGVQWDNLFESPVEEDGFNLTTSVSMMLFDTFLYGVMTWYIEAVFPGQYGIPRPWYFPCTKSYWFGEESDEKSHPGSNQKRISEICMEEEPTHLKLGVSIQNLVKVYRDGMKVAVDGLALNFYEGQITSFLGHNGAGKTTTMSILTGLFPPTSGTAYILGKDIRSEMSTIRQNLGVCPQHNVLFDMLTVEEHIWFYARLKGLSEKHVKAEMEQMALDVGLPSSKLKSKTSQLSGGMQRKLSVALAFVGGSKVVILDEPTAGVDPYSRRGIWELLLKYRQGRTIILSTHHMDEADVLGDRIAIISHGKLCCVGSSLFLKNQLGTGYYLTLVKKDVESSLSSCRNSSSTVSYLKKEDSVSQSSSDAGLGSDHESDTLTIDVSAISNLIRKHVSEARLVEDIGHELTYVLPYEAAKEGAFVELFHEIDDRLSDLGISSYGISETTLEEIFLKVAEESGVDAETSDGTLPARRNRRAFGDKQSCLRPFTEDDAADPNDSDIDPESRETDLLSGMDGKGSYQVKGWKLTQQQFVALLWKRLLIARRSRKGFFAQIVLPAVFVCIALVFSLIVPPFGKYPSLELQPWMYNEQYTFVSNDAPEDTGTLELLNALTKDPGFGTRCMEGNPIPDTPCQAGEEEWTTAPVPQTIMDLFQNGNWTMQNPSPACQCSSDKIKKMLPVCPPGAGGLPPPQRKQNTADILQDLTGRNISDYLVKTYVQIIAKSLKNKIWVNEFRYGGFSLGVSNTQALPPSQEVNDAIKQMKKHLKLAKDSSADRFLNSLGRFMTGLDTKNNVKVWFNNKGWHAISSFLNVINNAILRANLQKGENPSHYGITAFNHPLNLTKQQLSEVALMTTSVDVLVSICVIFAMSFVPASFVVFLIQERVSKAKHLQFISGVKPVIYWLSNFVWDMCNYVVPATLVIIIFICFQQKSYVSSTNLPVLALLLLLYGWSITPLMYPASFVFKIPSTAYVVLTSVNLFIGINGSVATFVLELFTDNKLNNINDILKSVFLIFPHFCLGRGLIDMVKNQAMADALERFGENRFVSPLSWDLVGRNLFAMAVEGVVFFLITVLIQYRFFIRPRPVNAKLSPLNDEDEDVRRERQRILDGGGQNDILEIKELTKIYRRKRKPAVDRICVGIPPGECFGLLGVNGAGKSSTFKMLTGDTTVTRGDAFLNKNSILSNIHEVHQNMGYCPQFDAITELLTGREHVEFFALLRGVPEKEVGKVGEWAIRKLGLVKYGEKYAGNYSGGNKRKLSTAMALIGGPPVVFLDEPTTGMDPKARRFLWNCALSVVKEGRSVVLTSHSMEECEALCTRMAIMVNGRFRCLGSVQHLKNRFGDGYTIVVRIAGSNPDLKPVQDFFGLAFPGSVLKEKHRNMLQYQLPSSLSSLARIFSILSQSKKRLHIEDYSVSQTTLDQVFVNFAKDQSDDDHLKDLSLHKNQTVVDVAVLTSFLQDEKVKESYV
T3 sequence (O15440 whole entry): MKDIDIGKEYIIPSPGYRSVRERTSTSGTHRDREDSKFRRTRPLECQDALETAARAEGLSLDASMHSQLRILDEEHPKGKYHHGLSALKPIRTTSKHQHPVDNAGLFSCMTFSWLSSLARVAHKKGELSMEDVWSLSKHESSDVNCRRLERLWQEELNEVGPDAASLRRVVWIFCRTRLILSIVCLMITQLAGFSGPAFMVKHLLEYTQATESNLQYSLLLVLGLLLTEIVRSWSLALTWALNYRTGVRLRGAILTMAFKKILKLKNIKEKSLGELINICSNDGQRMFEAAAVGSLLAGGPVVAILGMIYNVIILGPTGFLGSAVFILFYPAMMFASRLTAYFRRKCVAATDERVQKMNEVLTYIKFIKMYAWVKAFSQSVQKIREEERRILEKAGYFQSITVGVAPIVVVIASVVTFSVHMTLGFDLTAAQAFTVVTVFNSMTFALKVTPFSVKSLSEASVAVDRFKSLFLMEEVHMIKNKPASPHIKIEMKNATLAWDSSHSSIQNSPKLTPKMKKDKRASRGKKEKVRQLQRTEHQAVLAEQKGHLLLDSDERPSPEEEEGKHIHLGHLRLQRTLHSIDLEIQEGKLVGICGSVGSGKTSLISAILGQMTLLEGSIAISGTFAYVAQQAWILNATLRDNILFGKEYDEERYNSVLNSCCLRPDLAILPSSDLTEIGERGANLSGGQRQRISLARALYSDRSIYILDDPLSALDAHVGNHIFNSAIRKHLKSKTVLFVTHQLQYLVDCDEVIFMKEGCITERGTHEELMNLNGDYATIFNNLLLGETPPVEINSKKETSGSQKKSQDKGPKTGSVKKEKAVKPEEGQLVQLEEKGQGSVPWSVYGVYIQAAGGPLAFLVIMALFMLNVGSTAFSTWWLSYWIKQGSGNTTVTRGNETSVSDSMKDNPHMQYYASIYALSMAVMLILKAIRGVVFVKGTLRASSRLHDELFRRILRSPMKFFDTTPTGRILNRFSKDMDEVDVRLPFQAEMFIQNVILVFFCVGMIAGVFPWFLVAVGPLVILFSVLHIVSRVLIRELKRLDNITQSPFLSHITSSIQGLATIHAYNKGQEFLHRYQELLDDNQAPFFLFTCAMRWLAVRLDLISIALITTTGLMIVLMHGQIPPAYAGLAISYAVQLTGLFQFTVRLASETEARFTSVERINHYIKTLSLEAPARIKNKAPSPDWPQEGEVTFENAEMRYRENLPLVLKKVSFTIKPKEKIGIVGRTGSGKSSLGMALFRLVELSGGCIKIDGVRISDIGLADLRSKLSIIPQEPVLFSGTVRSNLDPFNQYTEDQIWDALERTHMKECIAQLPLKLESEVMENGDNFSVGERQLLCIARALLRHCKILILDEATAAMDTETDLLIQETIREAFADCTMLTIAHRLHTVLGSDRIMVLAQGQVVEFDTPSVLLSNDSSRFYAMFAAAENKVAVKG
ABCB1, sequence (P08183 whole entry): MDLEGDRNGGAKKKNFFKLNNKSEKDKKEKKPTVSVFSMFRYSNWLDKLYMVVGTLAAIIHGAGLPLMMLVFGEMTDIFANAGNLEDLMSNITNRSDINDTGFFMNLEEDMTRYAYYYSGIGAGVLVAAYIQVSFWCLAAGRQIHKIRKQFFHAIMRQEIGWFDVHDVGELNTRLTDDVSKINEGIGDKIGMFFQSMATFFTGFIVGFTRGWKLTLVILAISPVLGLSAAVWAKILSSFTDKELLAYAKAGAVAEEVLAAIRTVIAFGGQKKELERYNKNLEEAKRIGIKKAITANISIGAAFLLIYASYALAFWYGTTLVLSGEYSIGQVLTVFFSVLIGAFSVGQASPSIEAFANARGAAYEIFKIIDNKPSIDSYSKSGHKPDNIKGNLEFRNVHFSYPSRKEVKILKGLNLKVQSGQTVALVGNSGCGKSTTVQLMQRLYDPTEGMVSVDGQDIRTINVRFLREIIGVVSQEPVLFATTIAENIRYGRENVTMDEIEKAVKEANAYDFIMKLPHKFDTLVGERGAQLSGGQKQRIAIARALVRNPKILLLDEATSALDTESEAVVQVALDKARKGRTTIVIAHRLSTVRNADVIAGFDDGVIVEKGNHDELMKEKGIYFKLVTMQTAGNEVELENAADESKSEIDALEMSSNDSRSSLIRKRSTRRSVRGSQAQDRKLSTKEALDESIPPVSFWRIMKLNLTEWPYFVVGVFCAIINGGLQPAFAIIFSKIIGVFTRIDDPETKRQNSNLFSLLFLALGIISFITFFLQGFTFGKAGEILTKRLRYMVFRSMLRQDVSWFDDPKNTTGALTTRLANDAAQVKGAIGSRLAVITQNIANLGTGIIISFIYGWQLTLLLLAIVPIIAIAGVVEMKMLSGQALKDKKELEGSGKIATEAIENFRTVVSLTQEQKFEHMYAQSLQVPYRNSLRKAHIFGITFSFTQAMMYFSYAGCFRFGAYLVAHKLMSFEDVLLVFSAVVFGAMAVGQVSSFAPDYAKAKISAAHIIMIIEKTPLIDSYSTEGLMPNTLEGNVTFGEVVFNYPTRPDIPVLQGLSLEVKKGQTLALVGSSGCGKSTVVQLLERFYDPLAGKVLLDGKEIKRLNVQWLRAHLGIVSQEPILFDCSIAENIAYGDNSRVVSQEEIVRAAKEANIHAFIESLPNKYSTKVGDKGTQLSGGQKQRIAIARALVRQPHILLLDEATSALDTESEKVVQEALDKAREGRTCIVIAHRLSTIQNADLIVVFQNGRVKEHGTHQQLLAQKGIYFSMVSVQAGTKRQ

Compound: Cn1c2ccccc2c2ccc3c(c21)C(=O)C=CC3=O [NSC 92937]
- Correlation (ABCB6): −0.4335

Compound: Cn1c2ccc(F)cc2c2ccc3c(c21)C(=O)C=CC3=O [NSC 668844]
- Correlation (ABCG2): −0.4615

Compound: COc1ccc2c(c1)c1c(C)c3c[n+](C)ccc3c(C)c1n2C [NSC 155694]
- Correlation (ABCC5): −0.4494

Compound: CC(=O)O[C@@H]1C=C(C=O)[C@](O)(C=O)[C@@]2(C)CCCC(C)(C)[C@H]12 [NSC 277293]
- Correlation (ABCB6): −0.5055

Compound: CCN(CC)c1ccc(/C=C2/C[N+](C)(C)C/C(=C/c3ccc(N(CC)CC)cc3)C2=O)cc1.[I-] [NSC 634791]
- Correlation (ABCB1): −0.7900
- Accumulation of the fluorescent compound in MDR1-positive cells vs parental KB-3-1 ([1]; 1.74 μM, 10 min at 37° C.): contain less of the fluorescent compound than the parental KB-3-1 cell line
- Effect of PSC 833 on the decreased accumulation ([1]; 2 μM PSC 833): completely reversible

Compound: O=C(O)COc1ccc(C(=O)/C(SS/C(C(=O)c2ccc(OCC(=O)O)c(Cl)c2Cl)=C2\C=C(c3ccc(Br)cc3)SS2)=C2/C=C(c3ccc(Br)cc3)SS2)c(Cl)c1Cl [NSC 641281]
- Response of ABCC2-overexpressing MDCKII cells vs sham-transfected control [2]: extremely resistant; also recorded: no signs of toxicity even at maximal concentrations

Compound: COc1cc2cc3c4cc(OC)c(OC)cc4cc[n+]3c(C)c2cc1OC [NSC 156625, Coralyne]
- Correlation (ABCB1): −0.4657
- Interaction with MDR1 (MDR1): interact with MDR1

Compound: CCS(=O)(=O)O.CN(C)C(=O)c1cccc(COc2ccc(N3C(N)=NC(N)=NC3(C)C)cc2Cl)c1 [NSC 139105, Baker's soluble antifol, reference compound]
- Relationship between drug sensitivity and ABCB1 expression (in words) (ABCB1): inversely correlated
- Reversal of resistance by verapamil (MDR1; verapamil, inhibitor of MDR1 transport (Gupta et al., 1988)): reversed by verapamil

Compound: CS(=O)(=O)[O-].Cc1c2cc[n+](C)cc2c(C)c2c1[nH]c1ccccc12 [NSC 352299]
- Correlation (ABCC5): −0.4318

Compound: CCCCCCCCCCCCCCCC(=O)OCC1OC(OC)C2NP(=O)(N(CCCl)CCCl)OC1C2O (stereo not shown) [NSC 642915]
- Correlation (ABCA9): −0.4289

Compound: CC(=O)O[C@@H]1[C@@H](O)[C@H](O[C@H]2[C@H](OC(=O)[C@H]3CC[C@@H]4[C@H](C3)O[C@@]3(C[C@H](OC(=O)/C=C/c5ccccc5)[C@H](C)CO3)[C@]43CO3)O[C@H](C)[C@@H](O)[C@@H]2OC(C)=O)O[C@H](C)[C@H]1O [NSC 328426, phyllanthoside]
- Correlation (ABCB1; Pearson correlation of ABCB1 expression with sensitivity of the 60 cell lines, 1429 compounds, inverse, p < 0.0001): −0.7784
- Correlation (ABCA1): −0.2806
- Interaction with MDR1 (MDR1): interact with MDR1

Compound: CCOC(=O)/C=C(\C(=O)OCC)n1cc(C)c(=O)n(Cc2cnnn2CCCCOC(C)=O)c1=O [NSC 694002]
- Pearson's Correlation Coeff (ABCB1): 0.2442
- Correlation (ABCG2): −0.3627

Compound: C[C@]12CC[C@H]3[C@@H](CCC4=CC(=O)NCC[C@@]43C)[C@@H]1CC[C@@H]2OC(=O)COc1ccc(N(CCCl)CCCl)cc1 [NSC 620480]
- Correlation (ABCA9): −0.4846

Compound: C=C1[C@H](OCC(C)C)[C@@H](O)[C@@H](OC(=O)c2cccnc2)C(C)(C)/C=C/[C@H](C)[C@H](OC(C)=O)[C@@]2(O)C[C@@](C)(OC(C)=O)[C@H](OC(=O)c3ccccc3)[C@@H]2[C@H]1OC(C)=O [NSC 688235]
- Correlation (ABCA4): −0.3557

Compound: Cc1cc(C)c2c(=O)cc(-c3ccccc3)[nH]c2c1 [NSC 665925]
- Correlation (ABCA4): −0.4545

Compound: CC[n+]1c(/C=C/c2ccc(N(CCCl)CCCl)cc2)ccc2cc(NC(=O)/C=C/c3ccccc3)ccc21.[I-] [NSC 640085]
- Correlation (ABCA1): −0.3580

Compound: COC(=O)c1ccccc1NC(=O)C(=O)CC(=O)c1ccccc1NC1=CC(=O)C(=O)c2ccccc21 [NSC 641240]
- Correlation (ABCC3): −0.5829
- Correlation (ABCA12): −0.5165

Compound: COc1cc2c(cc1Oc1c(Oc3c(O)c(OC)cc4c3C(CC(C)C)N(C)CC4)c(OC)cc3c1C(CC(C)C)N(C)CC3)C(CC(C)C)N(C)CC2 (stereo not shown) [NSC 21075]
- Correlation (ABCC5): −0.3650

Compound: CN(C)c1ccc(/C=c2/c3ccccc3n3c2cc(-c2ccc(Cl)cc2)[n+]3C)cc1.O=S(=O)([O-])C(F)(F)F [NSC 699479]
- Correlation (ABCA1): −0.4141

Compound: O=C1C=C(Nc2ccccc2C(=O)CC(=O)C(=O)Nc2cccc(C(F)(F)F)c2)c2ccccc2C1=O [NSC 644751]
- Correlation (ABCC3): −0.5748
- Correlation (ABCA12): −0.5643

Compound: COc1cc2c(cc1O)CC[C@@H]1[C@@H]2CC[C@]2(C)[C@@H](O)CC[C@@H]12 [NSC 659853]
- Correlation (ABCA12): −0.5016

Compound: OCCO[P+]1(OCCO)n2c3ccc2C(c2ccccc2)=C2C=CC(=N2)C(c2ccccc2)=c2ccc(n21)=C(c1ccccc1)C1=NC(=C3c2ccccc2)C=C1 [NSC 682066]
- Correlation (ABCB1): −0.7985
- Correlation (ABCA1): −0.3783

Compound: Cc1c2cc[n+](Cc3ccc(I)cc3)cc2c(C)c2c1[nH]c1ccccc12 [NSC 604574]
- Correlation (ABCC5): −0.4123

Compound: COC1=C(OC)C(=O)c2cc(C)c(=O)c(C)cc2C1=O [NSC 649666]
- Correlation (ABCA12): −0.3757
